{"source": "patent US7605142B2", "about": "“Expression of cyclin G1 in tumors” (University of Southern California, priority 1995, dated 2009)", "test_system": "MG-63 cells", "experiment": "Ganciclovir cytotoxicity/bystander effects in HStk vector transduced MG-63 cells", "assay_type": "cell-based, human", "conditions": "GCV 20 μg/ml, 10 days", "protocol": "Initial dose-response studies determined the sensitivity of MG-63 cells and the optimal concentrations of G418 used to select transduced cells. Upon G418 selection, varying proportions of HStk-transduced and non-transduced MG-63 cells (plating density 2.5×10^4 cells) were exposed to 20 μg GCV/ml D10 in each of six-well plates, for 10 days. […] Bystander effects of GCV treatment were compared to those in HStk-transduced NIH 3T3 cells (ATCC No. CRL 1658).", "data": [{"compound": "Nc1nc(O)c2ncn(COC(CO)CO)c2n1", "note": "[GCV, ganciclovir]", "values": [{"measurement": "degree of confluency", "setting": "10% HStk+/90% HStk− MG-63 cells", "result": 15, "unit": "%"}, {"measurement": "degree of confluency", "setting": "30% HStk+/70% HStk− MG-63 cells", "result": 15, "unit": "%"}, {"measurement": "degree of confluency", "setting": "50% HStk+/50% HStk− MG-63 cells", "result": 10, "unit": "%"}, {"measurement": "degree of confluency", "setting": "100% HStk− (non-transduced) MG-63 cells", "result": 75, "unit": "%"}, {"measurement": "degree of confluency", "setting": "greater than 50% HStk+ MG-63 cells", "result": "< 10", "unit": "%"}]}]}
